The source of these data is patent US20230293535A1, “ERBB/BTK INHIBITORS” (Dizal (Jiangsu) Pharmaceutical Co., Ltd., priority 2018, published 2023).

Type in all cases: cell-based
Assay [1] has as its system OCI-LY-10 cells. In words: BTK (wt) cell proliferation, OCI-LY-10 (CellTiter-Glo, 72 h).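 Further: viable cells quantified via cellular ATP luminescence, proliferation given as percent of DMSO control after subtracting a duplicate plate read at time of dosing.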 Conditions: Homo sapiens, OCI-Ly10, 72 h, OCI-LY-10 cells, 72 h, CellTiter-Glo; read-out: BTK WT OCI-LY-10 GI50. For orientation: Cellular ATP, detected with luciferase, serves as a proxy for viable cell number.
Assay [2] addresses T1, human Her2 exon 20 insertion mutation YVMA (Homo sapiens, UniProt P04626, INS775YVMA).
T1 construct: expressed in transfected cells; host or cells: NIH-3T3, lentiviral transduction, puromycin selection
In words: Her2 Exon 20 YVMA insertion cellular phosphorylation inhibition (MSD p-Her2 Y1248/total Her2).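 Further: lentivirally transduced NIH-3T3 cells in 1% FBS medium, electrochemiluminescent MSD read-out, graded compound concentrations at 37 °C.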 To be noted: Her2 YVMAins cells, 4 h compound.

Assay [3] deals with Ri-1 cells. Nature of the assay: BTK (wt) cell proliferation, Ri-1 (CellTiter-Glo, 72 h).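 Further: viable cells quantified as cellular ATP luminescence, proliferation normalized to a time-zero plate and the DMSO control, compounds tested across a dilution series.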 Conditions: Ri-1, 72 h, Ri-1 cells, 72 h, CellTiter-Glo; read-out: BTK WT Ri-1 GI50.
Assay [4] concerns Her2 exon 20 insertion YVMA transduced NIH-3T3 cell line. Nature of the assay: Cell proliferation, Her2 YVMAins NIH-3T3 (CellTiter-Glo, 72 h).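 Further: viable cells quantified by ATP luminescence, growth over a day-zero baseline plate expressed as percent of DMSO control growth, compound dilution series in 10% FBS medium.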 To be noted: Mus musculus, NIH3T3, 72 h, Her2 YVMAins cells, 72 h proliferation; read-out: Her2 Exon 20 YVMA insertion GI50.
For assay [5], the target named is T2, WT EGFR (Homo sapiens, UniProt P00533).
T2 construct: host or cells: A-431
T2 sequence (P00533 25-1210): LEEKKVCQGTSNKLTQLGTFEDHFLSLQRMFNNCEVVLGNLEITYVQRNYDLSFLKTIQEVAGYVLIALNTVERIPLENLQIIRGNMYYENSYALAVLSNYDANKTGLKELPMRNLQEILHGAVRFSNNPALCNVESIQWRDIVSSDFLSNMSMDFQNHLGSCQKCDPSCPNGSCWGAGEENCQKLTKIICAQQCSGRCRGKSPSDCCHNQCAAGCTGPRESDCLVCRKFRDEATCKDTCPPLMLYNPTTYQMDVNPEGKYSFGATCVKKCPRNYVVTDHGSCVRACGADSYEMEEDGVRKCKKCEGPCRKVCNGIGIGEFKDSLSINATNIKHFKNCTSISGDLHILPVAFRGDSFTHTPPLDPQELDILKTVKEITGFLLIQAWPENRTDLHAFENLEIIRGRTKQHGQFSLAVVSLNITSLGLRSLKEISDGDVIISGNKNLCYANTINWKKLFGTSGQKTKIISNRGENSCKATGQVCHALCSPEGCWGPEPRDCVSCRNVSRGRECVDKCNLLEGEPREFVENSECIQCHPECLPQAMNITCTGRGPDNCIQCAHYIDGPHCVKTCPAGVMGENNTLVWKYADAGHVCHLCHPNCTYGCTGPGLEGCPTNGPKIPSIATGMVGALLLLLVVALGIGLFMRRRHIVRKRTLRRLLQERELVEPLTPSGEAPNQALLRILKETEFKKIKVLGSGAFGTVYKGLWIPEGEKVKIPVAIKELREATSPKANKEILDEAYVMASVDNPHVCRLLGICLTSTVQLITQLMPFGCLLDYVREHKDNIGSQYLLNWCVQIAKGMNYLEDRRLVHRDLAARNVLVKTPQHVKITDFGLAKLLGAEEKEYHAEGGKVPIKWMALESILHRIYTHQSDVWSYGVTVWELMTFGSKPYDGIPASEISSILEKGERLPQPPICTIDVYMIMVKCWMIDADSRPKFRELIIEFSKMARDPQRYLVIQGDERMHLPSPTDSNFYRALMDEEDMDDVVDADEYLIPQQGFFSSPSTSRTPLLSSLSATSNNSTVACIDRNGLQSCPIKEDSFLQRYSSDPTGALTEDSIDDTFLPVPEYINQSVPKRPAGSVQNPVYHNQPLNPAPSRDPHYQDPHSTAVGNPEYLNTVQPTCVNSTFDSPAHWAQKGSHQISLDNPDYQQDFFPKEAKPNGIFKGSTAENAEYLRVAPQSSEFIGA
Nature of the assay: WT EGFR cellular phosphorylation inhibition in A-431 (hEGF stimulated, MSD).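 Further: electrochemiluminescence read-out of EGFR Tyr1068 phosphorylation expressed as ratio to total EGFR, cells kept in medium with 1% FBS, compounds tested as a concentration series.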 To be noted: A431 cells, 4 h compound, then 100 ng/ml hEGF 10 min.

The subject of assay [6] is NCI-H1975 EGFR L858R/T790M cells. In words: Cell proliferation, NCI-H1975 EGFR L858R/T790M (CellTiter-Glo, 72 h).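 Further: viable cells quantified by luciferase-based ATP luminescence, proliferation expressed relative to DMSO-treated wells (100%) after subtracting a parallel plate read at the time of dosing.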 Conditions: Homo sapiens, NCI-H1975, 72 h, NCI-H1975, 72 h proliferation; read-out: EGFR L858R and T790M mutation GI50.
Assay [7] deals with WT EGFR cell line A-431. Nature of the assay: Cell proliferation, WT EGFR A431 (CellTiter-Glo, 72 h).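 Further: proliferation from a luminescent ATP viability signal, expressed as 100 × (treated minus time-zero plate) over (DMSO control minus time-zero plate), cells grown with 10% FBS.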 To be noted: Homo sapiens, A-431, 72 h, A431, 72 h proliferation; read-out: EGFR WT A431 GI50.
Assay [8] addresses T3, human EGFR exon 20 H773_V774insNPH (Homo sapiens, UniProt P00533, INS773NPH).
T3 construct: host or cells: Ba/F3
In words: EGFR Exon20 NPH insertion cellular phosphorylation inhibition (MSD pEGFR Y1068/total EGFR).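 Further: IL3-independent Ba/F3 cells with constitutively phosphorylated EGFR, compound exposure at 37 °C under 5% CO2, electrochemiluminescent MSD measurement of the p-EGFR to total EGFR ratio.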 Conditions: Ba/F3 EGFR NPH ins cells, 4 h compound, p-EGFR(Y1068)/total EGFR.

The test system of assay [9] is Ba/F3 EGFR ASV ins cells. Nature of the assay: Cell proliferation, Ba/F3 EGFR ASV ins (CellTiter-Glo, 72 h).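 Further: IL3-independent Ba/F3 cells transduced with EGFR V769_D770insASV, cellular ATP luminescence after compound exposure, growth relative to DMSO control with the day-0 baseline reading subtracted.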 To be noted: Ba/F3 EGFR, 72 h, Ba/F3 EGFR ASV ins, 72 h proliferation; read-out: EGFR Exon20 ASV insertion GI50.
Procedure: WT or mutant cells were seeded in 384 well plates at appropriate concentrations with corresponding growth media supplemented with 10% FBS, for each experiment, identical plates were prepared in duplicates, and the plates were incubated overnight. On the next day, one of each duplicated plates was dosed with tested compounds at a series of concentrations, and another one of the duplicated plate was analysied for G0 value. The dosed plates were incubate for another 72 h at 37° C. with 5% CO2 and the number of viable cells in each well of the G0 plates or the dosed plates were measured by CellTiter-Glo® Luminescent Cell Viability Assay (Promega). This assay is a luminescent method for determining the number viable cells through measurement of cellular ATP concentration by detection of luciferase activity. Detection reagents (15 µl) was dispensed into per well, and the plates were incubate for 30 min at room temperature. Then, the luminescence in each well was measured using the Envision plate reader (PerkinElmer). The percentage of proliferation was calculated based on the formula: %Proliferation= 100 × (G3 value of sample well-Go value)/(G3 value of DMSO control-Go value).
For assay [10], the target named is T4, EGFR L858R&T790M (Homo sapiens, UniProt P00533, L858R/T790M).
T4 construct: host or cells: NCI-H1975
T4 sequence (P00533 25-1210 T790M/L858R): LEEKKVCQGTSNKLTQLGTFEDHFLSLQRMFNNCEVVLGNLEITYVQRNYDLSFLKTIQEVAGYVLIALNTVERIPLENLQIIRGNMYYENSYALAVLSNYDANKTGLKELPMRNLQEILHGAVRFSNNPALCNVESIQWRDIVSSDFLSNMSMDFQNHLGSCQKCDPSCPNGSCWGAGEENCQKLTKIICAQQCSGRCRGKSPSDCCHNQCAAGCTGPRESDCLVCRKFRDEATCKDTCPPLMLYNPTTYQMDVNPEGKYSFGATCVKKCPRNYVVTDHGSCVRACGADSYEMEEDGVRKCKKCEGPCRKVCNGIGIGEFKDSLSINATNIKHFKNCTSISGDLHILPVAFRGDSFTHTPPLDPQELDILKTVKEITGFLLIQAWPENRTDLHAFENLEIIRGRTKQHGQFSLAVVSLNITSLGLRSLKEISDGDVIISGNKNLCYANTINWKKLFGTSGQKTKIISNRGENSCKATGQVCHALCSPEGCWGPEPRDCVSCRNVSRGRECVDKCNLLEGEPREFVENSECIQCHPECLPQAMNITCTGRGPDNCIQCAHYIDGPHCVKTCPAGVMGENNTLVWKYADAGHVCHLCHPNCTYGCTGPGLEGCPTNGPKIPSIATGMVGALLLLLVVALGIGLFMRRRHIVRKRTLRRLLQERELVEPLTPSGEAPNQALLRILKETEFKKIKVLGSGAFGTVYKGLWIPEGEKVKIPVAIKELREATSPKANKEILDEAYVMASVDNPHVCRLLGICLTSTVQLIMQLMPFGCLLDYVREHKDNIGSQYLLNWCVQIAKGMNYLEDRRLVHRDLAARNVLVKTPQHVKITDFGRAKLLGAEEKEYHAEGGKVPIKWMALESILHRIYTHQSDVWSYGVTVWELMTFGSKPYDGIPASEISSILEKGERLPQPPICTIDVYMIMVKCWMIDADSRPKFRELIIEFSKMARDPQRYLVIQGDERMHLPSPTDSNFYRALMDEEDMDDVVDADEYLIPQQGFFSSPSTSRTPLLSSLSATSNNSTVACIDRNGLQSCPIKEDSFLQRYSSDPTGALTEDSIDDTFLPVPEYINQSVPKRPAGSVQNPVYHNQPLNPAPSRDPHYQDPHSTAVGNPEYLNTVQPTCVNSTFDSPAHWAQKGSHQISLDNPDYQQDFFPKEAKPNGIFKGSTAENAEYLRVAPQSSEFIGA
In words: EGFR L858R and T790M cellular phosphorylation inhibition in NCI-H1975 (MSD).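 Further: phosphorylated and total EGFR detected by electrochemiluminescence, cells exposed to compound in medium containing 1% FBS at 37 °C.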 To be noted: NCI-H1975 cells, 4 h compound, p-EGFR(Y1068)/total EGFR; read-out: EGFR L858R and T790M mutation IC50.

The target in assay [11] is T5, human EGFR exon 20 V769_D770insASV (Homo sapiens, UniProt P00533, INS769ASV).
T5 construct: expressed in transfected cells; host or cells: Ba/F3 (DSMZ ACC-300), lentiviral transduction, puromycin selection, IL3 depletion
In words: EGFR Exon20 ASV insertion cellular phosphorylation inhibition (MSD pEGFR Y1068/total EGFR).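 Further: electrochemiluminescent readout on an MSD SECTOR Imager, IL3-independent transduced cells in medium with 1% FBS, compound concentration series at 37 °C and 5% CO2.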 To be noted: Ba/F3 EGFR ASV ins cells, 4 h compound, p-EGFR(Y1068)/total EGFR.

The test system of assay [12] is TMD-8 cells. In words: BTK (wt) cell proliferation, TMD-8 (CellTiter-Glo, 72 h).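 Further: viable cells quantified by ATP-based luminescence, proliferation expressed as percent of DMSO control after subtracting a time-zero baseline plate read at dosing.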 To be noted: Homo sapiens, TMD8, 72 h, TMD-8 cells, 72 h, CellTiter-Glo; read-out: BTK WT TMD-8 GI50.
Assay [13] relates to DB cells. In words: BTK (wt) cell proliferation, DB (CellTiter-Glo, 72 h).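 Further: DB cells in 384-well plates given a dilution series of compound, viable cells read by ATP luminescence, growth expressed versus DMSO control after subtracting a time-zero plate reading.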 To be noted: Homo sapiens, DB, DB cells, CellTiter-Glo, read-out: Non-BCR activated DB GI50.
The subject of assay [14] is Ba/F3 EGFR NPH ins cells. In words: Cell proliferation, Ba/F3 EGFR NPH ins (CellTiter-Glo, 72 h).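 Further: IL3-independent cells carrying constitutively phosphorylated EGFR, compound dilution series, viable cells quantified by ATP luminescence, growth relative to DMSO wells after subtracting pre-dosing (day 0) baseline.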 Conditions: Ba/F3 EGFR, 72 h, Ba/F3 EGFR NPH ins, 72 h proliferation; read-out: EGFR Exon20 NPH insertion GI50.

T1 sequence (P04626 with tags, fused parts or gaps INS775YVMA): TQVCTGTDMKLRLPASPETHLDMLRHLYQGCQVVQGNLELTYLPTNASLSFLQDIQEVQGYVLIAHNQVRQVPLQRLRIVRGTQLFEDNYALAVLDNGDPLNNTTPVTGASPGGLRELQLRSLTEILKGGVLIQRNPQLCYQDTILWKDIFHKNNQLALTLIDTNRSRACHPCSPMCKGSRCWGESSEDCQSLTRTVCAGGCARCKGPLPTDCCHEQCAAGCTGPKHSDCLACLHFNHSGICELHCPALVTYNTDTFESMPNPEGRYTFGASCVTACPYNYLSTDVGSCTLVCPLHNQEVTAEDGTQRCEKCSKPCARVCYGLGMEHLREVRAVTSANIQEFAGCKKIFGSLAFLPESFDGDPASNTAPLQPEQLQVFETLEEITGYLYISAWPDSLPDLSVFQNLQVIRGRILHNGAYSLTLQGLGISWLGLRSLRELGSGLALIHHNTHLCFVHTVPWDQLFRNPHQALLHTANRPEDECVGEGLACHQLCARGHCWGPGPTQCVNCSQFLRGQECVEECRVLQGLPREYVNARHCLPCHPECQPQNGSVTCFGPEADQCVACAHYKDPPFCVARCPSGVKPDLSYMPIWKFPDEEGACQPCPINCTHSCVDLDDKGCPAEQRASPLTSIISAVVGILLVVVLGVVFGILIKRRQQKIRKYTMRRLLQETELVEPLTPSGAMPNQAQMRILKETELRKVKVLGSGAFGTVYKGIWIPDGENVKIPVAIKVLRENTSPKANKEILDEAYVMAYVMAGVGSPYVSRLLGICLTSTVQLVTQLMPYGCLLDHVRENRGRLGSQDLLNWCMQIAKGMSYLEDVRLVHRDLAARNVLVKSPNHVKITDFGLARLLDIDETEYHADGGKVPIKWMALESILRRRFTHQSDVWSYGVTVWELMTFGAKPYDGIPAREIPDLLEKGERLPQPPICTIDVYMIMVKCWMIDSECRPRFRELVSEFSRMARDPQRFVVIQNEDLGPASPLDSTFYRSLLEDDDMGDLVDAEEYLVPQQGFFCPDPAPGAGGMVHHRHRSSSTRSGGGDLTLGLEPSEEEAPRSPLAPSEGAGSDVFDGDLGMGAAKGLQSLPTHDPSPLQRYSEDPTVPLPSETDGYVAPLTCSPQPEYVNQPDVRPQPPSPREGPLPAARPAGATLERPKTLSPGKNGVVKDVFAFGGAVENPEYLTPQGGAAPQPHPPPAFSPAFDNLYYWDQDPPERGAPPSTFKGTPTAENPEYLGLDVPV
T3 sequence (P00533 with tags, fused parts or gaps INS773NPH): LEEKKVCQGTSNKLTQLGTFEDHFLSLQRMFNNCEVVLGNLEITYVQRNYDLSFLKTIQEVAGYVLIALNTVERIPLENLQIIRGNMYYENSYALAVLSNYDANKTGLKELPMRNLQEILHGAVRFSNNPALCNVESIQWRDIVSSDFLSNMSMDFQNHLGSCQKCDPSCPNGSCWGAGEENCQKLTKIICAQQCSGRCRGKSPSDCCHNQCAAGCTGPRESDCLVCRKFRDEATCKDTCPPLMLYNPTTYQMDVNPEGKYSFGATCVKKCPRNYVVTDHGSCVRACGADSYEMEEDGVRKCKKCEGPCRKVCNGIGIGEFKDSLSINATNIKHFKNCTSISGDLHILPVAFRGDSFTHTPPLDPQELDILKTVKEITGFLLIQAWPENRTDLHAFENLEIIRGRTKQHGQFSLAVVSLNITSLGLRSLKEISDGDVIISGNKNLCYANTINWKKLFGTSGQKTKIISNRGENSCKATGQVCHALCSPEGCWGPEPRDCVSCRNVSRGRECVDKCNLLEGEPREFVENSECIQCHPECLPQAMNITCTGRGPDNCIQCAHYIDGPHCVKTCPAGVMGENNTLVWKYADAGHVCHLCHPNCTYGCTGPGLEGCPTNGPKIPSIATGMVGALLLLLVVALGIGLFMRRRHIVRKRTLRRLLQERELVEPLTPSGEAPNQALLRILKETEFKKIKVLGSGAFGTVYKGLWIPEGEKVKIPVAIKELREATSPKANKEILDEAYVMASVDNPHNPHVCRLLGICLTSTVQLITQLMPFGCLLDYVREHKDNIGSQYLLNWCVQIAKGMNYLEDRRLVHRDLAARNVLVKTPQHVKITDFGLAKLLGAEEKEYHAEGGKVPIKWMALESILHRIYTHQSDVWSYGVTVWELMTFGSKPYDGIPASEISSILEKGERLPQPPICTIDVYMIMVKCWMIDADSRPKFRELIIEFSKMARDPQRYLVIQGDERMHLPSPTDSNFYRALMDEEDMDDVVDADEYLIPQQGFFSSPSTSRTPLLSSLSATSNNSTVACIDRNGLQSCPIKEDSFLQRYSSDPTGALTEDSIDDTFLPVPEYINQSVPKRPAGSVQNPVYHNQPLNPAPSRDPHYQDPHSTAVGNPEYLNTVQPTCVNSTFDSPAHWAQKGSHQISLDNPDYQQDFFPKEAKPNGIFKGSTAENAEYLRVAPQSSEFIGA

With `C=CC(=O)Nc1cc(Nc2ncnc(Nc3cc(F)c(F)cc3C(C)(O)CC)n2)c(OC)cc1N1CCC[C@@H]1CN(C)C` (stereo partly drawn) [Compound 57, N-(5-(4-(4,5-difluoro-2-(2-hydroxybutan-2-yl)phenylamino)-1,3,5-triazin-2-ylamino)-2-((R)-2-((dimethylamino)methyl)pyrrolidin-1-yl)-4-methoxyphenyl)acrylamide], the GI50 in assay [1] worked out at 0.072 µM; in assay [3], 0.0346 µM; in [4] it was 0.0187 µM; in assay [6], 0.0013 µM; in [7] it was 0.0061 µM; in assay [9] it was 0.0114 µM. Further, the GI50 was 0.0229 µM in [12], more than 3 µM in assay [13] and 0.0148 µM in assay [14]. Also, the concentration for half-maximal inhibition (IC50) is 0.0026 µM in [2]; 0.0105 µM in assay [5]; 0.0085 µM in assay [8]; 0.0004 µM in assay [10]; 0.0071 µM in [11].
In the case of `C=CC(=O)Nc1cc(Nc2ncnc(Nc3cc(F)c(F)cc3C(C)(O)CC)n2)c(OC)cc1N1CCC[C@H]1CN(C)C` (stereo partly drawn) [Compound 58, N-(5-(4-(4,5-difluoro-2-(2-hydroxybutan-2-yl)phenylamino)-1,3,5-triazin-2-ylamino)-2-((S)-2-((dimethylamino)methyl)pyrrolidin-1-yl)-4-methoxyphenyl)acrylamide], the GI50 in assay [1] is 0.32 µM; in assay [3], 0.372 µM; in [4], 0.553 µM; in assay [6], 0.0131 µM; in assay [7], 0.178 µM; in assay [9], 0.251 µM. Further, the 50% growth inhibitory concentration (GI50) is 0.262 µM in assay [12], more than 3 µM in assay [13] and 0.21 µM in [14]. The IC50 in assay [2] amounted to 0.117 µM; in assay [5], 0.627 µM; in [8], 0.297 µM; in [10], 0.0036 µM; in [11], 0.0773 µM.
`C=CC(=O)Nc1cc(Nc2ncnc(Nc3cc(Cl)c(F)cc3C(C)(C)O)n2)c(OC)cc1N1CC[C@H](N(C)C)C1` [Compound 60, (S)-N-(5-(4-(5-chloro-4-fluoro-2-(2-hydroxypropan-2-yl)phenylamino)-1,3,5-triazin-2-ylamino)-2-(3-(dimethylamino)pyrrolidin-1-yl)-4-methoxyphenyl)acrylamide]: the GI50 in [1] was 0.0135 µM; in [3] it was 0.0389 µM; in assay [4], 0.102 µM; in assay [6] it was 0.0025 µM; in assay [7], 0.025 µM; in assay [9], 0.0763 µM. Further, the results for the GI50 in [12], in [13] and in assay [14] were 0.0115 µM, more than 3 µM and 0.0486 µM, respectively. Moreover, the 50% inhibitory concentration (IC50) in assay [2] was 0.0116 µM; in assay [5], 0.0507 µM; in assay [8] it was 0.0289 µM; in assay [10], 0.0013 µM; in [11], 0.0223 µM.
Take `C=CC(=O)Nc1cc(Nc2ncnc(Nc3cc(F)c(Cl)cc3C(C)(C)O)n2)c(OC)cc1N1CC[C@@H]1CN(C)C` [Compound 62, (R)-N-(5-(4-(4-chloro-5-fluoro-2-(2-hydroxypropan-2-yl)phenylamino)-1,3,5-triazin-2-ylamino)-2-(2-((dimethylamino)methyl)azetidin-1-yl)-4-methoxyphenyl)acrylamide]: the GI50 in assay [1] was determined as 0.0053 µM; in assay [3], 0.084 µM; in assay [4], 0.114 µM; in assay [6] it was 0.0032 µM; in assay [7] it was 0.0133 µM; in [9], 0.0348 µM. In addition, the GI50 in assay [12] is 0.00379 µM; in assay [13], more than 3 µM; in assay [14], 0.0458 µM. The IC50 in assay [2] was 0.0114 µM; in [5], 0.0274 µM; in assay [8] it was 0.0193 µM; in assay [10], 0.0005 µM; in assay [11], 0.0107 µM.
With `C=CC(=O)Nc1cc(Nc2ncnc(Nc3cc(Cl)c(F)cc3C(C)(O)CC)n2)c(OC)cc1N1CCC[C@@H]1CN(C)C` (stereo partly drawn) [Compound 63, N-(5-(4-(5-chloro-4-fluoro-2-(2-hydroxybutan-2-yl)phenylamino)-1,3,5-triazin-2-ylamino)-2-((R)-2-((dimethylamino)methyl)pyrrolidin-1-yl)-4-methoxyphenyl)acrylamide], the GI50 in [1] worked out at 0.0633 µM; in [3], 0.0149 µM; in assay [4], 0.0236 µM; in assay [6] it was 0.0011 µM; in assay [7], 0.0044 µM; in [9], 0.0136 µM. Also, the GI50 was 0.0116 µM in assay [12], more than 3 µM in [13] and 0.0172 µM in assay [14]. Moreover, the IC50 was 0.0014 µM in assay [2]; 0.0143 µM in assay [5]; 0.0059 µM in assay [8]; 0.0004 µM in assay [10]; 0.0064 µM in assay [11].
In the case of `C=CC(=O)Nc1cc(Nc2ncnc(Nc3ccccc3C(C)(O)C(F)(F)F)n2)c(OC)cc1N(C)CCN(C)C` (stereo not shown) [Compound 66, N-(2-((2-(dimethylamino)ethyl)(methyl)amino)-4-methoxy-5-(4-(2-(1,1,1-trifluoro-2-hydroxypropan-2-yl)phenylamino)-1,3,5-triazin-2-ylamino)phenyl) acrylamide], the GI50 in assay [1] was more than 3 µM; in assay [3], more than 3 µM; in assay [4], 0.0291 µM; in assay [6], 0.0023 µM; in assay [7], 0.0149 µM; in assay [9] it was 0.0254 µM. Also, the GI50 in assay [12] is 0.582 µM; in [13], more than 3 µM; in assay [14] it was 0.0226 µM. The half-maximal inhibitory concentration (IC50) turned out to be 0.0082 µM in assay [2]; 0.0236 µM in [5]; 0.0208 µM in assay [8]; 0.0006 µM in [10]; 0.0096 µM in [11].
For the compound `C=CC(=O)Nc1cc(Nc2ncnc(Nc3cc(Cl)c(F)cc3C(C)(O)CC)n2)c(OC)cc1N(C)CCN(C)C` (stereo not shown) [Compound 67, N-(5-(4-(5-chloro-4-fluoro-2-(2-hydroxybutan-2-yl)phenylamino)-1,3,5-triazin-2-ylamino)-2-((2-(dimethylamino)ethyl)(methyl)amino)-4-methoxyphenyl)acrylamide], the GI50 was determined as 0.0204 µM in assay [1]; 0.0479 µM in assay [3]; 0.0463 µM in assay [4]; 0.0025 µM in assay [6]; 0.0187 µM in [7]; 0.0219 µM in assay [9]. Moreover, the values for the 50% growth inhibitory concentration (GI50) in assay [12], in assay [13] and in assay [14] were 0.016 µM, more than 3 µM and 0.0328 µM, respectively. Besides, the IC50 in assay [2] was determined as 0.0043 µM; in assay [5] it was 0.0266 µM; in assay [8], 0.0136 µM; in [10], 0.0006 µM; in assay [11], 0.0101 µM.
In the case of `C=CC(=O)Nc1cc(Nc2nccc(Nc3cc(Cl)c(Cl)cc3C(C)(C)O)n2)c(OC)cc1N1CC[C@@H]1CN(C)C` [Compound 71, (R)-N-(5-(4-(4,5-dichloro-2-(2-hydroxypropan-2-yl)phenylamino)pyrimidin-2-ylamino)-2-(2-((dimethylamino)methyl)azetidin-1-yl)-4-methoxyphenyl)a crylamide], the concentration for 50% growth inhibition (GI50) turned out to be 0.0124 µM in [1]; 0.0235 µM in [3]; 0.0862 µM in assay [4]; 0.0083 µM in assay [6]; 0.0349 µM in assay [7]; 0.0898 µM in assay [9]. The GI50 amounted to 0.0048 µM in assay [12], 2.95 µM in assay [13] and 0.0747 µM in [14]. In addition, the half-maximal inhibitory concentration (IC50) in [2] was 0.0196 µM; in assay [5], 0.213 µM; in assay [8] it was 0.051 µM; in assay [10], 0.0013 µM; in [11], 0.0311 µM.

For orientation: GI50 means the concentration that inhibits growth by half. A word on the IC50: it is the concentration that gives 50% inhibition.
